Key:
5-HT1D = target: T1, 5-HT1D (Homo sapiens, UniProt P28221); test: Radioligand binding assay, 5-HT1D
T1 construct: expressed in transfected cells
Description: (§1) [^3H] […] The reactions are incubated at room temperature for 3 hr. and then counted in a Trilux Microbeta™ scintillation counter to detect receptor-bound radioligand. Binding data are analyzed by computer-assisted 4 parameter fit analysis (ID Business Solutions Ltd, Guildford, Surrey, UK). […]
(§2) Affinity for other serotonin receptor subtypes as well as for alpha 1 & 2 adrenergic receptors can readily be determined by modification of the above described radioligand receptor binding assay using membranes derived from cells stably expressing the desired receptor subtype including the 5-HT1A, 5-HT1B, and 5-HT1D subtypes, as well as the 5-HT2A, 5-HT2B, 5-HT2C, 5-HT4, 5-HT7, and 5-HT6 receptor subtypes. […]

5-HT2C = target: T2, 5-HT2C (Homo sapiens, UniProt P28335); test: Radioligand binding assay, 5-HT2C
T2 construct: expressed in transfected cells
T2 sequence (P28335 33-458): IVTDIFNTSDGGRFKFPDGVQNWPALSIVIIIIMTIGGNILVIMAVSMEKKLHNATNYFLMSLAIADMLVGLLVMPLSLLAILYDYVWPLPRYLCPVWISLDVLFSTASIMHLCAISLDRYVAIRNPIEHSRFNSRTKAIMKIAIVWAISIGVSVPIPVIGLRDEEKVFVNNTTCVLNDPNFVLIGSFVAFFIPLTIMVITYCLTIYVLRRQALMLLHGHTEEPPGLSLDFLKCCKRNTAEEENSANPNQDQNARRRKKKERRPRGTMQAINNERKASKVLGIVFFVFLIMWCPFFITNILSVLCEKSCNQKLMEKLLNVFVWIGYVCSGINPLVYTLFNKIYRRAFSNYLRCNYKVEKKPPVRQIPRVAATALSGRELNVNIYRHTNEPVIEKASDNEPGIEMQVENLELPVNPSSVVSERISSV
Description: as §1, §2

5-HT5 = target: T3, 5-HT5 (Homo sapiens, UniProt P47898); test: Radioligand binding assay, 5-HT5
T3 construct: expressed in transfected cells
Description: as §1, §2

5-HT6 = target: T4, 5-HT6 (Homo sapiens, UniProt P50406); test: Radioligand binding assay, 5-HT6
T4 construct: expressed in transfected cells
Description: as §1, §2

[1] = system: dural plasma protein extravasation; test: Animal model of dural plasma protein extravasation (PPE); format: in vivo; settings: rat
Text: The dural plasma protein extravasation model is an established model for migraine. The ability of a test compound to reduce extravasation of plasma proteins into the dura under assay conditions is considered indicative of the compound's ability to reduce or prevent the dural inflammation thought to be symptomatic of migraine. (see Johnson, K. W., et al., Neuroreport, 8 (1997) 2237-2240.)
To assay compounds for their ability to reduce or prevent dural plasma protein extravasation, male Harlan Sprague-Dawley rats (250-350 g) are anesthetized with sodium pentobarbital (65 mg/kg, i.p.) and placed in a stereotaxic frame (David Kopf Instruments) with the incisor bar set at −2.5 mm. Following a midline sagital scalp incision, 2 pairs of bilateral holes are drilled through the skull (3.2 mm posterially, 1.8 and 3.8 mm laterally, all coordinates referenced to bregma). […]
The amount of FITC-BSA for each sample is quantified with a fluorescence microscope (Zeiss) equipped with a grating monochromator, a spectrophotometer, and a computer driven stage. Fluorescence measurements are taken at 25 points in a 5×5 grid in 500 μm steps on each dural sample with an excitation wavelength of approximately 490 nm and emission intensity measured at approximately 535 nm. The mean and standard deviation of the 25 measurements are determined. […]

T1 sequence (P28221 whole entry, species assumed): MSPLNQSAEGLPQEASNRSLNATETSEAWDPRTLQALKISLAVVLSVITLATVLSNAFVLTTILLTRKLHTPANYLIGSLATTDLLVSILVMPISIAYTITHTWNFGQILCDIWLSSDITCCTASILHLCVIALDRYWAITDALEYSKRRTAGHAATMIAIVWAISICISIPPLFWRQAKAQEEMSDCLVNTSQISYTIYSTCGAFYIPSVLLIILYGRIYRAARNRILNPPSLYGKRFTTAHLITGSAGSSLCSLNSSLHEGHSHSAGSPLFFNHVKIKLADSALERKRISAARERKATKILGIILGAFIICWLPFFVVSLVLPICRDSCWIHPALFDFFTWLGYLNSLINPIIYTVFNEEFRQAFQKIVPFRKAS
T4 sequence (P50406 whole entry, species assumed): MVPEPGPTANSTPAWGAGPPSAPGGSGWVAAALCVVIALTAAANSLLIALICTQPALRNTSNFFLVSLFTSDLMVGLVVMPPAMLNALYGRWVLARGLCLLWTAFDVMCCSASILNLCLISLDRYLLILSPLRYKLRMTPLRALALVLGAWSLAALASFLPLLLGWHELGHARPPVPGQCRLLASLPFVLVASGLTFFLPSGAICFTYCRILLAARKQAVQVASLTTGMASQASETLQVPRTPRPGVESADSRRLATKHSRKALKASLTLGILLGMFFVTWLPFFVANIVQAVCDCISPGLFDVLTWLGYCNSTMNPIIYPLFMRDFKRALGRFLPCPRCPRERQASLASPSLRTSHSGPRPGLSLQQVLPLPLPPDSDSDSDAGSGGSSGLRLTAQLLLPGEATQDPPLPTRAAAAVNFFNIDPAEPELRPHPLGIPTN
T3 sequence (P47898 whole entry): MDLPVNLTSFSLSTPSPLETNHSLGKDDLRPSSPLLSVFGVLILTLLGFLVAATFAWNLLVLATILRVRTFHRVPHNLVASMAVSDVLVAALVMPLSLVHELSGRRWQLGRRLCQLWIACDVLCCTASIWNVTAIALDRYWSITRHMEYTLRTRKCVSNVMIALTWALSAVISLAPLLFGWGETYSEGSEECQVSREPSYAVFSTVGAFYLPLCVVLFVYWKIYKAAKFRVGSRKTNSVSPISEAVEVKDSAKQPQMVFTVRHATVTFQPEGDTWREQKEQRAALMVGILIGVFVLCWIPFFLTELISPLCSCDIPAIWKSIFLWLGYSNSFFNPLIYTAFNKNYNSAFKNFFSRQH

CCn1ncc(CN2CCN(c3cccnc3N3CCC(O)CC3)CC2)c1C.Cl [Example 1, 3′-[4-(1-Ethyl-5-methyl-1H-pyrazol-4-ylmethyl)-piperazin-1-yl]-3,4,5,6-tetrahydro-2H-[1,2]bipyridinyl-4-ol hydrochloride]
Ki (5-HT1D): 1.84 µM | Ki (5-HT2C): > 8.36 µM | Ki (5-HT5): 4.55 µM | Ki (5-HT6): > 5.83 µM | ratio of extravasation in the dura, stimulated side over unstimulated side ([1]; at 0.1 mg/Kg, saline control approximately 2.0, full prevention approximately 1.0): about 1.15 | ID100 ([1]; electrical stimulation of trigeminal ganglion, route not stated for the result): 0.1 mg/kg
